Assay results reported in ChEMBL document CHEMBL1201862, “PubChem BioAssay data set” (2004).
Active and inactive are the calls of the source. Cut-off read from the data, not from the text of the source, for most assays here: actives have a measured EC50 and inactives only a lower limit.

How the values were obtained:
[1] = system: BJ; experiment: BJ-TERT-LT-ST fibroblast viability loss – cell-based, RAS-independent, luminescence, dose response (AID 1935); assay type: functional; conditions: Homo sapiens;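 note: BJ fibroblasts immortalized with TERT plus LT and ST oncogenes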
[2] = molecular target: Heat shock protein HSP 90-alpha (Homo sapiens, UniProt P07900); assay type: functional, organism-based
[3] = molecular target: Beta-galactosidase (Escherichia coli, UniProt Q8VNN2); experiment: PubChem AID 485352; assay type: functional
Sequence of Beta-galactosidase (Q8VNN2 whole entry): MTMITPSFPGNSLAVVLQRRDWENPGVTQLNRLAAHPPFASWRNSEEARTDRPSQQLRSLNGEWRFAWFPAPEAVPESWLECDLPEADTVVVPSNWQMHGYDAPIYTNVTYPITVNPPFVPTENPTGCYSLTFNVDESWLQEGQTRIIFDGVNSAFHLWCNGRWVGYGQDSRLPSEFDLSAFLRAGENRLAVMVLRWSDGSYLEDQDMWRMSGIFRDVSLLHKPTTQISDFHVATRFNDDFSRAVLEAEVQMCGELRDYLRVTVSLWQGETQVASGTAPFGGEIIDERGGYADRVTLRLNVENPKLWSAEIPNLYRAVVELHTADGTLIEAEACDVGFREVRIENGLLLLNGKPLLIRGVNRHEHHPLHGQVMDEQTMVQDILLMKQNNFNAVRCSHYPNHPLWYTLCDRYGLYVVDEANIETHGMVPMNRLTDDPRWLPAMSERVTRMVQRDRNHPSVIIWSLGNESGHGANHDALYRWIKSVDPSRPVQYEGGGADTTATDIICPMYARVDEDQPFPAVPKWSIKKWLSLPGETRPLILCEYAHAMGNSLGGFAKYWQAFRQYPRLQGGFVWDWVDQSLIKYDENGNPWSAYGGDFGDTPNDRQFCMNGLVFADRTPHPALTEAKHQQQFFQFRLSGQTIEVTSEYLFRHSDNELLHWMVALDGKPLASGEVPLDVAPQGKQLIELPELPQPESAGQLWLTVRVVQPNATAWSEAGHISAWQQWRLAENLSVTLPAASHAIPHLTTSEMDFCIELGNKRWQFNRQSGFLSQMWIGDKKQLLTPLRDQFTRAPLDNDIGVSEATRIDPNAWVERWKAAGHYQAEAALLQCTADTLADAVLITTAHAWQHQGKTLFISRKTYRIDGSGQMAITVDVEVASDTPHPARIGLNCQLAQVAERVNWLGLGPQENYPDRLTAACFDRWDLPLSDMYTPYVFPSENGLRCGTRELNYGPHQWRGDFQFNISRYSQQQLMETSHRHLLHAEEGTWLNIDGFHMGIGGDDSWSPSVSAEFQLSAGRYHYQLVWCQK

[4] = molecular target: T1, Type-1 angiotensin II receptor (Homo sapiens, UniProt P30556); experiment: antagonism of angiotensin II type 1 receptor – cell-based, uHTS hits, selectivity assay for APJ receptor antagonist project, dose response (AID 463214); assay type: functional;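 note: antagonist potency against angiotensin II stimulated AT1 response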
T1 sequence (P30556 whole entry): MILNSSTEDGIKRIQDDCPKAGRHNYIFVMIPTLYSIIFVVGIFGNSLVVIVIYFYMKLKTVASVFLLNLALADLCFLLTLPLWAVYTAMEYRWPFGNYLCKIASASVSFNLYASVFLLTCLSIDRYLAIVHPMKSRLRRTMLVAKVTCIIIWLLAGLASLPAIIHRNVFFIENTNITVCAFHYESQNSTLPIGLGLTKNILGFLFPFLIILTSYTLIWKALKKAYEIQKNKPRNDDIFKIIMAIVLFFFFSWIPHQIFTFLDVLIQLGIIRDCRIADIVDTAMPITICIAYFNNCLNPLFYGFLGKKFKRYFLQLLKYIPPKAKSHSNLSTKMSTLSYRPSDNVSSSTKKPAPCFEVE

[5] = system: BJ; experiment: BJ-TERT fibroblast viability loss – cell-based, RAS-independent, luminescence, dose response (AID 1933); assay type: functional; conditions: Homo sapiens
[6] = system: Streptococcus; experiment: GAS UMAA2166 growth inhibition – luminescence, BacTiterGlo, counter-screen for streptokinase expression inhibitor project, dose response (AID 1915); assay type: functional, organism-based;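 note: potency for reduction of bacterial viability or growth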
[7] = system: BJ; experiment: cells; assay type: functional, cell-based; conditions: Homo sapiens
[8] = DRD fibroblast viability loss – cell-based, non-viral oncogenic, luminescence, dose response (AID 1934); assay type: functional; conditions: Homo sapiens
[9] = system: Streptococcus sp. 'group A'; experiment: Streptococcus pyogenes SK(-)GAS viability under kanamycin – luminescence, BacTiterGlo, confirmation, counter-screen for streptokinase expression inhibitor project, dose response (AID 1900); assay type: functional, organism-based
[10] = molecular target: T2, Carboxy-terminal domain RNA polymerase II polypeptide A small phosphatase 1 (Homo sapiens, UniProt Q9GZU7); experiment: CTDSP1 inhibitors, concentration-response, biochemical, absorbance readout, ultra-high-throughput screen actives (AID 540297); assay type: functional
T2 sequence (Q9GZU7 whole entry): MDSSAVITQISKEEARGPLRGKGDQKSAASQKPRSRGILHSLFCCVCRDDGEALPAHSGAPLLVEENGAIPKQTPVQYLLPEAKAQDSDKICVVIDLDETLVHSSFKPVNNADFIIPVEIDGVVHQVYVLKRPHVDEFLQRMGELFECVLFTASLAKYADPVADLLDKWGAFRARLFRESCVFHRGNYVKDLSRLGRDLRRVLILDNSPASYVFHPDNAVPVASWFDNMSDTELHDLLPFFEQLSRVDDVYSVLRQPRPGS

[11] = molecular target: T3, Fatty acid synthase (Homo sapiens, UniProt P49327); experiment: inhibition of human FAS-TE enzyme activity – biochemical, kinetic fluorescence intensity, dose response (AID 624326); assay type: functional;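 note: rate of fluorescence rise from hydrolysis of a fluorogenic O-methyl fluorescein ester substrate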
T3 sequence (P49327 whole entry): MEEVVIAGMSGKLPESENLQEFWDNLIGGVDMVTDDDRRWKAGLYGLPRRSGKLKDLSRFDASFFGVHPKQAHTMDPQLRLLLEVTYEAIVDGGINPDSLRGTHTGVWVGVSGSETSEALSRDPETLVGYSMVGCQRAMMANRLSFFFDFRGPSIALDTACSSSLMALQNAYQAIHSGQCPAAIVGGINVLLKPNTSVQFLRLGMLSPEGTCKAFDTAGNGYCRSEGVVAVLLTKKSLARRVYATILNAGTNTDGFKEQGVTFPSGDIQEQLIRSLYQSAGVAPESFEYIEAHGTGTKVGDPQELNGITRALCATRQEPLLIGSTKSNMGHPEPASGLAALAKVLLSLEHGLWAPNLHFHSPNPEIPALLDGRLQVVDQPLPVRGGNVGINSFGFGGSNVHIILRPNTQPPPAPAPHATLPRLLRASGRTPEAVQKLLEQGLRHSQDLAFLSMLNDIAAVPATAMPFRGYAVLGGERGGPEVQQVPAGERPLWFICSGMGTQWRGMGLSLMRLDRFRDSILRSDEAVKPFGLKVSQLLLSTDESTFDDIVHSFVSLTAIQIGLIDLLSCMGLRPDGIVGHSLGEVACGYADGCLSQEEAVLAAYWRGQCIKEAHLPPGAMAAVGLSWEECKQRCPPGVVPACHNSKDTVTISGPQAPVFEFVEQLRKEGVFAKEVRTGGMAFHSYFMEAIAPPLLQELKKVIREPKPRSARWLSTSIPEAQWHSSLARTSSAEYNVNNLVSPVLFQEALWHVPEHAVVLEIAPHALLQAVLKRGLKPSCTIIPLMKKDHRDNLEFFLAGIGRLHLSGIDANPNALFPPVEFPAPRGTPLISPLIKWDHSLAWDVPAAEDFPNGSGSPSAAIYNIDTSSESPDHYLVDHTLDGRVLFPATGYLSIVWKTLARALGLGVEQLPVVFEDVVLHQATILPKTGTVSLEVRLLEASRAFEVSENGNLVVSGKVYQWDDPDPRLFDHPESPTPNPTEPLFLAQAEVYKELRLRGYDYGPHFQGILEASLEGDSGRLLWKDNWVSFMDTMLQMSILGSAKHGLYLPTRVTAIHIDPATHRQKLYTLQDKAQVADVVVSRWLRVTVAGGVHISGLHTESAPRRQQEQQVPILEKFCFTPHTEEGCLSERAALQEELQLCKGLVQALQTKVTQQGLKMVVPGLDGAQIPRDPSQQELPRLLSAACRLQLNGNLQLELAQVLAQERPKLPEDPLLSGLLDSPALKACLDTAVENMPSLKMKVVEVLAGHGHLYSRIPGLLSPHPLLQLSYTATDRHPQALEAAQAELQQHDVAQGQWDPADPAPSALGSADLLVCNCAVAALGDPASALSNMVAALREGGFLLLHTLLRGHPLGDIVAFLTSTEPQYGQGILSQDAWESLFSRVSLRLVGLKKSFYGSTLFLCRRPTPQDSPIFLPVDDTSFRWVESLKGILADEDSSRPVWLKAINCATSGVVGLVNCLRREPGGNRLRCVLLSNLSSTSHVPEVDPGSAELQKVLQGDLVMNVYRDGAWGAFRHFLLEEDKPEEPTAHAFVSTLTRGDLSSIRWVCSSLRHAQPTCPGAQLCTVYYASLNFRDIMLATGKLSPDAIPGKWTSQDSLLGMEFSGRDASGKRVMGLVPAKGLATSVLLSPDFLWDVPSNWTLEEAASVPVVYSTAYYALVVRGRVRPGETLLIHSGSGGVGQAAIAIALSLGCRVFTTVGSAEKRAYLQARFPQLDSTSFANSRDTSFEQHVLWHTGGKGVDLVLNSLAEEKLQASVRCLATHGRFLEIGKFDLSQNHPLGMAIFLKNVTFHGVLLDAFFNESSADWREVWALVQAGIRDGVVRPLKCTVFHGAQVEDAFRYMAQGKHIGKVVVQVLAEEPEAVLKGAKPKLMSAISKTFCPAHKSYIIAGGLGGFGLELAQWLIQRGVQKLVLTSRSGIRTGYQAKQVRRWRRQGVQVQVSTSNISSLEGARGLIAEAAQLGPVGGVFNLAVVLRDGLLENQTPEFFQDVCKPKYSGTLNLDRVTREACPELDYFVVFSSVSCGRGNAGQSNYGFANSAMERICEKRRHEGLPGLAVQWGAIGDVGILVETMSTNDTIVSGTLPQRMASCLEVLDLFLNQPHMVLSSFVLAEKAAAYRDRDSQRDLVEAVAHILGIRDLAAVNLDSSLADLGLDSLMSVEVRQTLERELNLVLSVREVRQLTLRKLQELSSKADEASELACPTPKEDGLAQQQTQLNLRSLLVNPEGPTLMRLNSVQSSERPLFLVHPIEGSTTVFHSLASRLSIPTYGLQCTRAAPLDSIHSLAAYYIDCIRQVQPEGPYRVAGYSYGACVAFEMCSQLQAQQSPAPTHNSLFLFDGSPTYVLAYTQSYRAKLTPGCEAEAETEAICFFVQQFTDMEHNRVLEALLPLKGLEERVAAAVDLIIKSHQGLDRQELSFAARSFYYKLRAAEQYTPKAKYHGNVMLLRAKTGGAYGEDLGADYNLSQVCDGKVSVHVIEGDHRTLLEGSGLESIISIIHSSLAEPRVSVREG

[12] = molecular target: T3, Fatty acid synthase; experiment: inhibition of human FAS-TE enzyme activity – biochemical, endpoint fluorescence intensity, uHTS hits, dose response (AID 624327); assay type: functional;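 note: fluorescence from hydrolysis of an O-methyl fluorescein acyl ester substrate by the enzyme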

IC50 [10]	IC50 [11]	IC50 [12]	Compound	EC50 [1]	AC50 [2]	EC50 [3]	IC50 [4]	EC50 [5]	EC50 [6]	EC50 [7]	EC50 [8]	EC50 [9]
			Oc1cccc2ccc(/C=C/c3ccccc3Cl)nc12	> 150 µM (inconclusive)	11.6 µM (active)	> 40 µM (inactive)	32.3 µM (not active)	12.9 µM (active)	1.3 µM (active)	28.5 µM (active)	32.6 µM (active)	0.345 µM (active)
6.26 µM (active)	7.42 µM (active)	10 µM (active)	O=C(CCCC(=O)Nc1cccc(Br)c1)N/N=C/c1cc([N+](=O)[O-])ccc1O			> 40 µM (inactive)	> 40 µM (not active)					
